Counter-ions that a name gives are not always drawn.
What was measured:
JAK2 = JAK2 (Homo sapiens, UniProt O60674); settings: cited from earlier work
JAK3 = molecular target: T1, JAK3 (Homo sapiens, UniProt P52333); settings: cited from earlier work
T1 sequence (P52333 1-1124): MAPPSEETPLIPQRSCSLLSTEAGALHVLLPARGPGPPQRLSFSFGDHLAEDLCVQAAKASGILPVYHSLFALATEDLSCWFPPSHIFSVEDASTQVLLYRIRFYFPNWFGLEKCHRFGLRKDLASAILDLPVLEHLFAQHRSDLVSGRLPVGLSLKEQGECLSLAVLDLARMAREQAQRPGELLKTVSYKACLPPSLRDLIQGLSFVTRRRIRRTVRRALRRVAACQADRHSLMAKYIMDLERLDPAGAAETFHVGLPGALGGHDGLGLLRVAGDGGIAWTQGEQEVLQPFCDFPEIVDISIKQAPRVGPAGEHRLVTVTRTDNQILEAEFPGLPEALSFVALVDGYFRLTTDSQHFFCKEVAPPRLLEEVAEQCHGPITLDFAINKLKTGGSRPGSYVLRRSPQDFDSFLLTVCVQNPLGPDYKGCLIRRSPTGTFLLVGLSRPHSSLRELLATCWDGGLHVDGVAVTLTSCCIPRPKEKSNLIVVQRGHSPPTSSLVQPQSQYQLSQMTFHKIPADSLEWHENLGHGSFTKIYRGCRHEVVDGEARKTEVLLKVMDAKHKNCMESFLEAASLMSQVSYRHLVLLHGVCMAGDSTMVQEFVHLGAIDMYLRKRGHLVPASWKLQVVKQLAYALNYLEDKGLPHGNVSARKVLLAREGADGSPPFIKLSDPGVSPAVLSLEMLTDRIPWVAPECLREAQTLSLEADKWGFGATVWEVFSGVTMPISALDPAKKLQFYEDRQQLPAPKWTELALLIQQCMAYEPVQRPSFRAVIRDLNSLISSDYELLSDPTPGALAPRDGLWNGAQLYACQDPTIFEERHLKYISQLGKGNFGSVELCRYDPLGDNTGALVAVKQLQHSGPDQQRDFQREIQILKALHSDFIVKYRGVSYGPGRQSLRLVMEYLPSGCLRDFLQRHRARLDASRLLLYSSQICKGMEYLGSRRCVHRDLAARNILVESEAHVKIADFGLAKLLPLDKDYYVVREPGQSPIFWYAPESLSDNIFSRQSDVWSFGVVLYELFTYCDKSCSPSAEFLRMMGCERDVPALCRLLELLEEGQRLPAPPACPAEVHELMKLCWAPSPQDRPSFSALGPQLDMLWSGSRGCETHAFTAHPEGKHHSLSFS

JAK1 = JAK1 (Homo sapiens, UniProt P23458); settings: cited from earlier work
TYK2 = TYK2 (Homo sapiens, UniProt P29597); settings: cited from earlier work
19 other tested kinases = settings: cited from earlier work
mTOR [1] = molecular target: mTOR (Homo sapiens, UniProt P42345); settings: cited from earlier work
PKC (Rat brain) = settings: cited from earlier work
PI3K isoforms = settings: cited from earlier work
[2] = tested on: panel of 38 non-JAK kinases; settings: cited from earlier work
[3] = tested on: Vps34, AKT, PDK1, p70S6K, MEK, ERK, p38, or JNK; settings: cited from earlier work
mTOR [4] = molecular target: T2, mTOR (Homo sapiens, UniProt P42345+P62942); settings: cited from earlier work
T2 construct: endogenous in cells; host or cells: HT-1080 cell line

RET = RET (Homo sapiens, UniProt P07949); settings: cell-free assays; cited from earlier work
Flt3 = molecular target: T3, Flt3 (Homo sapiens, UniProt P36888); settings: cell-free assays; cited from earlier work
T3 sequence (P36888 27-993): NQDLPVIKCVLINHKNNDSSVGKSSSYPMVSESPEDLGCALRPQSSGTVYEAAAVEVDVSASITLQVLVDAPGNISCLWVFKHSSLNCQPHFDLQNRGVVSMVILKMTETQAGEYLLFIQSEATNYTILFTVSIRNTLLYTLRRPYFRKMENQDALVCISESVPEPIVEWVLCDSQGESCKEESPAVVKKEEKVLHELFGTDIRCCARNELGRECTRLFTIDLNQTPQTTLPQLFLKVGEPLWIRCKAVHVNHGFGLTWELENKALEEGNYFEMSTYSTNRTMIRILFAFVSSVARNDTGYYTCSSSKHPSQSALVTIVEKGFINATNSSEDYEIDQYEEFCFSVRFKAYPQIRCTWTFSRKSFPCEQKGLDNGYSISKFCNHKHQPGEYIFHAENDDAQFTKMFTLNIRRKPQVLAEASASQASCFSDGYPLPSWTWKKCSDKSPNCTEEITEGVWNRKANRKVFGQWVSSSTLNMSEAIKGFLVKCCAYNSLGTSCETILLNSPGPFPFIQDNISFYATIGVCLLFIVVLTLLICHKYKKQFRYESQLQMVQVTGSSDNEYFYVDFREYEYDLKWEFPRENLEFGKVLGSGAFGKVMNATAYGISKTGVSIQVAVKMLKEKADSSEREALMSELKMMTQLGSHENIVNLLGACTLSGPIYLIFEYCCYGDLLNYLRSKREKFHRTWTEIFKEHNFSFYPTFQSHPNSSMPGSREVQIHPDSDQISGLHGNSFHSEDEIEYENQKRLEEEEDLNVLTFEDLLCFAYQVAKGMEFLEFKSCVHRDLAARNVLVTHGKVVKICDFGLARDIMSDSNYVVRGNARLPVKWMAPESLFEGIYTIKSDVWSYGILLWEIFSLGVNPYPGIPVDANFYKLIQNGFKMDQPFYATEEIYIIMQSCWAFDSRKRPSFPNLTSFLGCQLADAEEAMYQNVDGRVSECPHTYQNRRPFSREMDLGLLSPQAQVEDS

[5] = tested on: HSL, STATs, AMPK, mTOR, P62, LC3I/II and SOCS-1 expression; test: Immunoblot analysis on gWAT from control, KO and Tofacitinib treated mice; assay type: in vivo
Excerpt: To examine the signaling mechanism underlying the rescue, we performed immunoblot analysis on gWAT isolated from control, KO and Tofacitinib treated mice. We evaluated HSL, STATs, AMPK, mTOR, P62, LC3I/II and SOCS-1 expression (FIG. 10C). […]. […]. Over-activation of mTOR indicates inhibition of autophagy/lipophagy as evident by significant accumulation of P62 in CLEC16A KO mice. […].

[6] = tested on: cytokines and chemokine from plasma of Clec16a KO mice; test: Plasma cytokines and chemokines, Mouse Cytokine Array panel; assay type: in vivo
Excerpt: FIG. 11. […]. The representative graph is quantification of cytokines and chemokine from plasma of Control (Vehicle), KO and KO+Tofacitinib inhibitor treated mice using the Mouse Cytokine Array panel.
To gain insight in the inflammatory mechanism involved in the development, progression and pathogenesis of various autoimmune diseases, we profiled plasma from control, KO and […] KO mice for cytokines and chemokine using Mouse Cytokine Array panel.

[7] = tested on: UBC-Cre-Clec16a^loxP KO mice; test: Tofacitinib treatment of Clec16a KO mice: fat, weight, survival; assay type: in vivo
majority of kinases = settings: tested at 1 μM; cited from earlier work
STAT3 = settings: HEL cells; cited from earlier work
[8] = gWAT immunoblot, CLEC16A KO mice

Sequence of JAK2 (O60674 whole entry, species assumed): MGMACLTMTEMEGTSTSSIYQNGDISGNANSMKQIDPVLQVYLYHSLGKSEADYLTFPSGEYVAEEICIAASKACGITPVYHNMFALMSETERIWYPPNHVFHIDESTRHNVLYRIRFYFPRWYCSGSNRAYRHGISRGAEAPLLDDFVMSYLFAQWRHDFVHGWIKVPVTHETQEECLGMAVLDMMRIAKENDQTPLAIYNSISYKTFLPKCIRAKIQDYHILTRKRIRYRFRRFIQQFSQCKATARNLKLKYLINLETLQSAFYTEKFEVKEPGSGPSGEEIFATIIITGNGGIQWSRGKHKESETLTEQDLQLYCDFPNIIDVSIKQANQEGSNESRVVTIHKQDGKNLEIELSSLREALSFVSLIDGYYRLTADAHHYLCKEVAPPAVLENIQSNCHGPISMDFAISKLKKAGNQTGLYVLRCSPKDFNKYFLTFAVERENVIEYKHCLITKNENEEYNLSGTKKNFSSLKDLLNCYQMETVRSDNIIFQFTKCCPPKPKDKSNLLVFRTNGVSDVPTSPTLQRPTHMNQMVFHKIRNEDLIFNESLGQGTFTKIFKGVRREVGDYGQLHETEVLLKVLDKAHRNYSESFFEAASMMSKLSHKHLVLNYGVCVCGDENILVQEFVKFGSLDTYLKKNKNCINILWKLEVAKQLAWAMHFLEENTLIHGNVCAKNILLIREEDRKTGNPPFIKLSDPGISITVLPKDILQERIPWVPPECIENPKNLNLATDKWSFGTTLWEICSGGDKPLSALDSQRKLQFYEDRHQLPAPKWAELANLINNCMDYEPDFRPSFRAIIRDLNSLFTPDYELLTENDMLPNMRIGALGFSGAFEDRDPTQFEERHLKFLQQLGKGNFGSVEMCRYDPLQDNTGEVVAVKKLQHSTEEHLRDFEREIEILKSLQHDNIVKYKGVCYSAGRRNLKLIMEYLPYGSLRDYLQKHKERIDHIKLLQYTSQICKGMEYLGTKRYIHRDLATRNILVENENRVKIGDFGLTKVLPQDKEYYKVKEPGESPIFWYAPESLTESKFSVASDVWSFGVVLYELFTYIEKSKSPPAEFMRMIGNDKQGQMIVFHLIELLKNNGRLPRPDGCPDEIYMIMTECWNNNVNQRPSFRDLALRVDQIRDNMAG
Sequence of TYK2 (P29597 whole entry): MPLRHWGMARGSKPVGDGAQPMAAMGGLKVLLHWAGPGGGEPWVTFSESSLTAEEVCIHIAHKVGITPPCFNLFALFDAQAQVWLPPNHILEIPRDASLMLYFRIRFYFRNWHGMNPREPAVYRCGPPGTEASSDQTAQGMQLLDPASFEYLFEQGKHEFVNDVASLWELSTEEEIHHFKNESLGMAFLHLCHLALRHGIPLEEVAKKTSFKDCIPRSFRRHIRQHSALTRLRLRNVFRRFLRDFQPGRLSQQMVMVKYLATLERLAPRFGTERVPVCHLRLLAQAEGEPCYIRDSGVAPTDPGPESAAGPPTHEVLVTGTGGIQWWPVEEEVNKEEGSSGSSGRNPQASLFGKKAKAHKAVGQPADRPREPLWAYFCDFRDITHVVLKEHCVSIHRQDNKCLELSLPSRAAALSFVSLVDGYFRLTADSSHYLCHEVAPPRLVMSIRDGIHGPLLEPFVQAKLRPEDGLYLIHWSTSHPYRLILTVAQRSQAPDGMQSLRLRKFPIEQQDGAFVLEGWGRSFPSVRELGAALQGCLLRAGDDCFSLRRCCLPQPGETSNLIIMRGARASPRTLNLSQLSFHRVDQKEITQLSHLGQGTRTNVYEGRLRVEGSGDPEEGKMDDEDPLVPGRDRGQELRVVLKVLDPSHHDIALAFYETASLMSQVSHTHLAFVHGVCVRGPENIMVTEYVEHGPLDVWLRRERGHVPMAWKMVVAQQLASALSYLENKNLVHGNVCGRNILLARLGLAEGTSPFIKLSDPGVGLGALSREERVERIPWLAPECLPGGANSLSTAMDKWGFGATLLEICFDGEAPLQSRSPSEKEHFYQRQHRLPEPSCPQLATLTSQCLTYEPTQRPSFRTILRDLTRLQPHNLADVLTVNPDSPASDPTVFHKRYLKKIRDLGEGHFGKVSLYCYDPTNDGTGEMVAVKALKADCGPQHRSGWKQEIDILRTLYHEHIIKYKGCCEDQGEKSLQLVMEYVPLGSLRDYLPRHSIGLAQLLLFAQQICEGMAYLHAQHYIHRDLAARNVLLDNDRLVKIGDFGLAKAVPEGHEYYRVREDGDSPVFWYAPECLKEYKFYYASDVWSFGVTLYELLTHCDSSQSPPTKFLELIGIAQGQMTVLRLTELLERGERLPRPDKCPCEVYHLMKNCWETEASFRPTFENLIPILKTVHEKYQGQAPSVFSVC
Sequence of JAK1 (P23458 whole entry, species assumed): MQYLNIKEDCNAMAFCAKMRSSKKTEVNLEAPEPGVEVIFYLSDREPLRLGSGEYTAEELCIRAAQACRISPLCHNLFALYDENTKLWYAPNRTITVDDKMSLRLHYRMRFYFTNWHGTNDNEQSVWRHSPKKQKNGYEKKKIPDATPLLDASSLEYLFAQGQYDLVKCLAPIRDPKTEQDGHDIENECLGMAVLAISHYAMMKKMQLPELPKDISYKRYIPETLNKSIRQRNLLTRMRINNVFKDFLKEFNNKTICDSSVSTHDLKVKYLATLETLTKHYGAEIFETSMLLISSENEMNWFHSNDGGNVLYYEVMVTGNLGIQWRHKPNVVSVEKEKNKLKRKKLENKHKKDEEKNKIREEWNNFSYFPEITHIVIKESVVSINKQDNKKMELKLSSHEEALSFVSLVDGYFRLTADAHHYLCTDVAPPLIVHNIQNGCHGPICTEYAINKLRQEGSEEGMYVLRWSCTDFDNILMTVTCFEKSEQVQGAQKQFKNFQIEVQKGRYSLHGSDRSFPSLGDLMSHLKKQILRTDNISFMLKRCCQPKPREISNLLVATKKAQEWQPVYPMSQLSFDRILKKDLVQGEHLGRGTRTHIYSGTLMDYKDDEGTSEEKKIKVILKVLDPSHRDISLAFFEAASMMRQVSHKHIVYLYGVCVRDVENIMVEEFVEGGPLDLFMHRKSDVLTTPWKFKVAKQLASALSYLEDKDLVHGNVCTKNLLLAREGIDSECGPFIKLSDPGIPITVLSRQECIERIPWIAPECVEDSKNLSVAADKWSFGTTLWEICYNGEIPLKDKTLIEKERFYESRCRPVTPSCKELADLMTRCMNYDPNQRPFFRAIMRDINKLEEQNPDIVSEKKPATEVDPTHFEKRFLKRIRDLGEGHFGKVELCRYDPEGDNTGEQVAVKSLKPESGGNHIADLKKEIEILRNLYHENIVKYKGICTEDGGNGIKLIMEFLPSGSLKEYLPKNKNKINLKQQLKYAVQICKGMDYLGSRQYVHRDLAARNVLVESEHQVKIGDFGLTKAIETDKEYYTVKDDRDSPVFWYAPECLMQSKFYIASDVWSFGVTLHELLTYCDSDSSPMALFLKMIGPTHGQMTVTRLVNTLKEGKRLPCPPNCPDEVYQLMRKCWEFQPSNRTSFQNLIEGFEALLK
Sequence of RET (P07949 29-1114, species assumed): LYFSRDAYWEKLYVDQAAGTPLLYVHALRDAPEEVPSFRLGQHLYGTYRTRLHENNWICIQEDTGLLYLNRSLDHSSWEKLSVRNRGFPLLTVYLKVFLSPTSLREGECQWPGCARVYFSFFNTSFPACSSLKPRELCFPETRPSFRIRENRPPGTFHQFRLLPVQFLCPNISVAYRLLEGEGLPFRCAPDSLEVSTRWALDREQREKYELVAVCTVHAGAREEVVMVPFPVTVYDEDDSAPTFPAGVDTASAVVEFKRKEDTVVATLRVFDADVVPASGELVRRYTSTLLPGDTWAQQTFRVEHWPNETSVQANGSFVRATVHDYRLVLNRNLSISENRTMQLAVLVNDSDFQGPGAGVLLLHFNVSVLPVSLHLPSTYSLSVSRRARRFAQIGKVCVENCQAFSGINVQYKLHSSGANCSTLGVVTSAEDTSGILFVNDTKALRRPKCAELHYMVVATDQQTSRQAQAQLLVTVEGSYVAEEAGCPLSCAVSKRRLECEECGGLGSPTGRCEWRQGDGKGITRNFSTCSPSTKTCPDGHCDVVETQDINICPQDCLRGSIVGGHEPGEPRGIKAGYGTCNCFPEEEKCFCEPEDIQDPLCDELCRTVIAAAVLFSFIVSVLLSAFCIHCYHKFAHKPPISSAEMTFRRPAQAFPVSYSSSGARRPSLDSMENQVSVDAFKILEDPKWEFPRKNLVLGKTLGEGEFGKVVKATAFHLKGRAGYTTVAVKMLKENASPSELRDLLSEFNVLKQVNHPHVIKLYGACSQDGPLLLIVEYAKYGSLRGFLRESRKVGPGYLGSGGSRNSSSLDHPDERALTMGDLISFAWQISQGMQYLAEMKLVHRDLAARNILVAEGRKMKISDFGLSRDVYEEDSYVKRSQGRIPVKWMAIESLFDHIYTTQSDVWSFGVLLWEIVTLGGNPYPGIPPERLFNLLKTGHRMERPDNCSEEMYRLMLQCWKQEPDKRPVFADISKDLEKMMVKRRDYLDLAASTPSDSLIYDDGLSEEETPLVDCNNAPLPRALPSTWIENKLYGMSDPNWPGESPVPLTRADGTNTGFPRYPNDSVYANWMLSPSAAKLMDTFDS
T2 sequence (Q9BVC4 whole entry): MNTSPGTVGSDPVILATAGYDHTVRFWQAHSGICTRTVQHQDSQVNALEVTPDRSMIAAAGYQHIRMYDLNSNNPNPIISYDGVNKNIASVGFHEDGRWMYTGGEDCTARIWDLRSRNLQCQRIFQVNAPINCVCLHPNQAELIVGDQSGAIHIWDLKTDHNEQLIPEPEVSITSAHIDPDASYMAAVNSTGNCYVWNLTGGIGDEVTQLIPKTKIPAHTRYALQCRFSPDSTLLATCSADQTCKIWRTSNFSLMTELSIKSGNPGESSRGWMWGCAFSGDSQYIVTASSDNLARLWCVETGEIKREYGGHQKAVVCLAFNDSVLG
T2 sequence (P62942 2-108): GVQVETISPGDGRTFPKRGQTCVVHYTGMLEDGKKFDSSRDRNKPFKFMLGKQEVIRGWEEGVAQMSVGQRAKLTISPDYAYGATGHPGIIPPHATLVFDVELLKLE

## Cc1cc(Nc2nc(N[C@@H](C)c3ccc(F)cc3)c(C#N)cc2F)n[nH]1 [AZ 960]
JAK2
  IC50: < 3 nM
JAK3
  selectivity for JAK2 versus JAK3: 3 fold

## CCn1c(C(=O)N(C2CC2)C2CC2)cc2c3c(ncn3C)c(Nc3cc(C)n(C)n3)nc21 [BMS-911543]
JAK1
  selectivity for JAK2 versus JAK1: ~350 fold
JAK3
  selectivity for JAK2 versus JAK3: 75 fold
TYK2
  selectivity for JAK2 versus TYK2: 65 fold

## CN1CCN(c2cccc(Nc3nc4c(-c5ccc(S(C)(=O)=O)cc5)cccn4n3)c2)CC1 [CEP33779]
JAK1
  selectivity for JAK2 versus JAK1: > 40 fold
JAK2
  IC50: 1.8 nM
TYK2
  selectivity for JAK2 versus TYK2: > 800 fold

## CCS(=O)(=O)N1CCN(c2ccc(Nc3ncc(C(N)=O)c(NC4CC4)n3)cc2)CC1 [Cerdulatinib]
19 other tested kinases
  IC50: < 200 nM

## CO[C@H]1C[C@@H]2CC[C@@H](C)[C@@](O)(O2)C(=O)C(=O)N2CCCC[C@H]2C(=O)O[C@H]([C@H](C)C[C@@H]2CC[C@@H](OCCO)[C@H](OC)C2)CC(=O)[C@H](C)/C=C(\C)[C@@H](O)[C@@H](OC)C(=O)[C@H](C)C[C@H](C)/C=C/C=C/C=C/1C [Everolimus]
mTOR [1]
  IC50: 1.6 to 2.4 nM

## N#Cc1ccc(COc2ccc(-c3cccc4nc(NC(=O)C5CC5)nn34)cc2)cn1 [GLPG0634 analogue]
JAK1
  IC50: 10 nM
JAK2
  IC50: 28 nM
JAK3
  IC50: 810 nM
TYK2
  IC50: 116 nM

## Cn1c2ccccc2c2c3c(c4c5ccccc5n(CCC#N)c4c21)CNC3=O [Go6976]
PKC (Rat brain)
  IC50: 7.9 nM

## COc1ccc(-c2ccc3c(N4CCOCC4)nc(N4C[C@@H](C)O[C@@H](C)C4)nc3n2)cc1CO [KU-0063794]
PI3K isoforms
  effect on PI3Ks: no effect

## CNS(=O)(=O)C[C@H]1CC[C@H](N(C)c2ncnc3[nH]ccc23)CC1 [Oclacitinib]
[2]
  inhibition of a panel of 38 non-JAK kinases: does not inhibit

## COc1ccc(-c2cc3c(C)nc(N)nc3n([C@H]3CC[C@H](OCCO)CC3)c2=O)cn1 [PF-04691502]
[3]
  activity against Vps34, AKT, PDK1, p70S6K, MEK, ERK, p38, or JNK: little activity

## CO[C@H]1C[C@@H]2CC[C@@H](C)[C@@](O)(O2)C(=O)C(=O)N2CCCC[C@H]2C(=O)O[C@H]([C@H](C)C[C@@H]2CC[C@@H](OP(C)(C)=O)[C@H](OC)C2)CC(=O)[C@H](C)/C=C(\C)[C@@H](O)[C@@H](OC)C(=O)[C@H](C)C[C@H](C)/C=C/C=C/C=C/1C [Ridaforolimus]
mTOR [4]
  IC50: 0.2 nM

## Cc1cnc(Nc2ccc(N3CCN(C)CC3)cc2)nc1Nc1cccc(S(=O)(=O)NC(C)(C)C)c1 [TG101209]
RET
  IC50: 17 nM
Flt3
  IC50: 25 nM

## C[C@@H]1CCN(C(=O)CC#N)C[C@@H]1N(C)c1ncnc2[nH]ccc12 [Tofacitinib]
[5]; gWAT immunoblot (P62), CLEC16A KO mice
  autophagy/lipophagy defect: rescues
[5]; [8]
  SOCS1 expression: significantly reversed
  p-STAT1 and p-STAT3: downregulating the p-STAT1 and p-STAT3 to normal levels comparable to control
  phosphorylation of ACC: promoted
  phosphorylation of mTOR: reversal
  upregulated p-AMPK: significantly reduced
[5]; gWAT immunoblot, CLEC16A KO+Tofacitinib mice
  phospho-HSL (p-HSL): significant reversal
[6]; plasma, KO+Tofacitinib treated mice, FIG. 11
  CLEC16A knockout inflammatory phenotype (cytokines/chemokine levels): attenuated
[7]
  lipodystrophic (inflammatory) phenotype: partially rescues
[7]; Tofacitinib treatment
  fat and weight loss: significantly rescued
  survival: improves

## N#CC(=C(/N)Sc1ccccc1N)/C(C#N)=C(\N)Sc1ccccc1N [U0126]
[6]; plasma of U0126-treated KO mice
  up regulated cytokines and chemokines: reversed

## CNC(=O)c1cccc(-c2ccc3c(N4CCOC[C@@H]4C)nc(N4CCOC[C@@H]4C)nc3n2)c1 [Vistusertib]
Majority of kinases
  binding to the majority of kinases: no or weak binding

## COc1cc2ncnc(Nc3ccc(O)c(Br)c3)c2cc1OC [WHI-P154]
JAK1
  activity against JAK1: no activity
JAK2
  activity against JAK2: no activity

## C[C@H](NC(=O)/C(C#N)=C/c1cccc(Br)n1)c1ccccc1 [WP1066]
STAT3
  IC50: 2430 nM

## CC(C)N(CCC(=O)c1ccc2ccccc2c1)Cc1ccccc1 [ZM 39923 HCl]
JAK2
  activity against JAK2: almost no activity

Source: patent publication US20230304018A1, “COMPOSITIONS AND METHODS FOR ENHANCING WEIGHT LOSS” (The Children's Hospital of Philadelphia, priority 2017, published 2023)
